Results taken from ChEMBL document CHEMBL1122639, “Racemic and optically active 2,9-dimethyl-5-(m-hydroxyphenyl)morphans and pharmacological comparison with the 9-demethyl homologues” (1984).
Active and inactive are the calls of the source. The calls are words filed in the database; no cut-off is given here.

How the values were obtained:
[1] = system: Mus musculus; experiment: Compound was administered subcutaneously and was evaluated for opioid antagonist activity (versus morphine) by tail-flick (TF) antagonism test; I denotes Inactive at 30 mg/kg; format: functional, organism-based; parameters: dose 30 mg/kg
[2] = system: Mus musculus; experiment: Compound was administered subcutaneously and was evaluated for opioid agonist activity by antinociceptive p-phenylquinone-writhing (PPQ) assay in mice,; format: functional; details: sc
[3] = system: Mus musculus; experiment: Compound was administered subcutaneously and was evaluated for opioid agonist activity by antinociceptive tail-flick (TF) assay in mice; I denotes Inactive at 30 mg/kg; format: functional, organism-based; parameters: dose 30 mg/kg
[4] = system: Mus musculus; experiment: Compound was administered subcutaneously and was evaluated for opioid agonist activity by antinociceptive p-phenylquinone-writhing (PPQ) assay in mice; I denotes Inactive at 30 mg/kg; format: functional, organism-based; parameters: dose 30 mg/kg
[5] = system: Mus musculus; experiment: Compound was administered subcutaneously and was evaluated for opioid agonist activity by antinociceptive hotplate (HP) assay in mice; I denotes Inactive at 30 mg/kg; format: functional, organism-based; parameters: dose 30 mg/kg
[6] = system: Mus musculus; experiment: Compound was administered subcutaneously and was evaluated for opioid agonist activity by antinociceptive tail-flick (TF) assay in mice; format: functional
[7] = system: Mus musculus; experiment: Compound was administered subcutaneously and was evaluated for opioid agonist activity by antinociceptive p-phenylquinone-writhing (PPQ) assay in mice; format: functional
[8] = system: Mus musculus; experiment: Compound was administered subcutaneously and was evaluated for opioid agonist activity by antinociceptive hotplate (HP) assay in mice; format: functional
[9] = system: Mus musculus; experiment: Compound was administered subcutaneously and was evaluated for opioid antagonist activity (versus morphine) by tail-flick (TF) antagonism test.; format: functional
[10] = system: Mus musculus; experiment: Compound was administered subcutaneously and was evaluated for opioid antagonist activity (versus morphine) by tail-flick (TF) antagonism test; format: functional
[11] = system: Mus musculus; experiment: Compound was administered subcutaneously and was evaluated for opioid agonist activity by antinociceptive hotplate (HP) assay in mice.; format: functional; details: sc
[12] = system: Mus musculus; experiment: Compound was administered subcutaneously and was evaluated for opioid agonist activity by antinociceptive tail-flick (TF) assay in mice.; format: functional; details: sc
[13] = system: Mus musculus; experiment: Compound was administered subcutaneously and was evaluated for opioid agonist activity by antinociceptive hotplate (HP) assay in mice,; format: functional; details: sc
[14] = Mus musculus, sc, read-out: ED50

CN1CC[C@]2(c3cccc(O)c3)CCC[C@@H]1C2 (stereo in doubt; (+))
AD50 [1]: inactive

CN1CC[C@]23c4c5ccc(O)c4O[C@H]2[C@@H](O)C=C[C@H]3[C@H]1C5 [MORPHINE]
ED50 [2]: 0.2 mg/kg | AD50 [1]: inactive

C[C@@H]1[C@H]2CCC[C@@]1(c1cccc(O)c1)CCN2C (stereo in doubt; form 1)
ED50 [3]: inactive | ED50 [4]: inactive | ED50 [5]: inactive

Br.CN1CC[C@]2(c3cccc(O)c3)CCC[C@@H]1C2 (stereo in doubt; (-))
ED50 [6]: 5.4 mg/kg | ED50 [7]: 0.9 mg/kg | ED50 [8]: 1.7 mg/kg

Br.CN1CC[C@]2(c3cccc(O)c3)CCC[C@@H]1C2 (stereo in doubt; (+))
ED50 [6]: 1.1 mg/kg | ED50 [7, 14]: 0.5 mg/kg | ED50 [8]: 0.4 mg/kg

C=CCN1CC[C@]23c4c5ccc(O)c4O[C@H]2[C@@H](O)C=C[C@H]3[C@H]1C5 [NALORPHINE]
ED50 [3]: inactive | AD50 [9]: 2.6 mg/kg | ED50 [7, 14]: 0.6 mg/kg

C[C@@H]1[C@H]2CCC[C@@]1(c1cccc(O)c1)CCN2C.Cl (stereo in doubt; form 1)
AD50 [10]: 4.5 mg/kg

C[C@@H]1[C@H]2CCC[C@@]1(c1cccc(O)c1)CCN2C.Cl (stereo in doubt; form 2)
ED50 [7, 14]: 1.9 mg/kg | ED50 [8, 14]: 10 mg/kg

COc1cccc([C@@]23CCC[C@H]([C@H]2C)N(C)CC3)c1
ED50 [3]: inactive | ED50 [4]: inactive | ED50 [1]: inactive | ED50 [5]: inactive

C[C@@H]1[C@H]2CCC[C@@]1(c1cccc(O)c1)CCN2C.Cl (stereo in doubt; form 3)
AD50 [9]: 5 mg/kg | ED50 [11]: 9.3 mg/kg

COc1ccc2c3c1O[C@H]1[C@@H](O)C=C[C@H]4[C@@H](C2)N(C)CC[C@@]341 [CODEINE]
ED50 [2]: 1.4 mg/kg | AD50 [1]: inactive | ED50 [12]: 14.5 mg/kg | ED50 [13]: 6.8 mg/kg

C[C@@H]1[C@H]2CCC[C@@]1(c1cccc(O)c1)CCN2C (stereo in doubt; form 3)
ED50 [3]: inactive | ED50 [4]: inactive

CN1CC[C@]2(c3cccc(O)c3)CCC[C@@H]1C2 (stereo in doubt; (-))
AD50 [1]: inactive

C[C@@H]1[C@H]2CCC[C@@]1(c1cccc(O)c1)CCN2C (stereo in doubt; form 2)
ED50 [3]: inactive | AD50 [1]: inactive
